Measured values from ChEMBL document CHEMBL1201862, “PubChem BioAssay data set” (2004).
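Following 48 hours of exposure in 96-well plates, responses at five concentrations were used to interpolate endpoints linearly. GI50 = concentration required for 50% inhibition of growth.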 Activity calls are given as the source filed them. No stated cut-off is given here; in the data, active = GI50 up to about 1.1 µM and inactive = higher.

Legend:
Assay in all cases: inhibition of tumour cell growth, NCI panel, 48 h
786-0 = tested on: 786-0
A498 = tested on: A498
COLO 205 = tested on: COLO 205
IGROV-1 = tested on: IGROV-1
KM12 = tested on: KM12
M14 = tested on: M14
NCI-H226 = tested on: NCI-H226
NCI-H23 = tested on: NCI-H23
OVCAR-4 = tested on: OVCAR-4
SK-MEL-28 = tested on: SK-MEL-28
SN12C = tested on: SN12C
SNB-19 = tested on: SNB-19
SR = tested on: SR
U-251 = tested on: U-251
UO-31 = tested on: UO-31
NCI-H522 = tested on: NCI-H522
RPMI-8226 = tested on: RPMI-8226

Structure (SMILES) | GI50 (786-0) | GI50 (A498) | GI50 (COLO 205) | GI50 (IGROV-1) | GI50 (KM12) | GI50 (M14) | GI50 (NCI-H226) | GI50 (NCI-H23) | GI50 (OVCAR-4) | GI50 (SK-MEL-28) | GI50 (SN12C) | GI50 (SNB-19) | GI50 (SR) | GI50 (U-251) | GI50 (UO-31) | GI50 (NCI-H522) | GI50 (RPMI-8226)
O=C1/C(=C/c2ccccc2)CCCC/C1=C\c1ccccc1 | 65.8 µM (inactive) | > 100 µM (inactive) | 39.2 µM (inactive) | > 100 µM (inactive) | 41.2 µM (inactive) | > 100 µM (inactive) | 39.4 µM (inactive) | 45.1 µM (inactive) | 75 µM (inactive) | > 100 µM (inactive) | > 100 µM (inactive) | > 100 µM (inactive) | 12.8 µM (inactive) | 62.2 µM (inactive) | 55 µM (inactive) |  | 
O=C1C(=O)N(c2cc(Cl)ccc2Cl)C(=O)C(=O)C1c1nc2ccccc2s1 | > 100 µM (inactive) | > 100 µM (inactive) | > 100 µM (inactive) | > 100 µM (inactive) | > 100 µM (inactive) | > 100 µM (inactive) | 34.4 µM (inactive) | > 100 µM (inactive) | > 100 µM (inactive) | > 100 µM (inactive) | > 100 µM (inactive) | > 100 µM (inactive) |  | > 100 µM (inactive) | 16.2 µM (inactive) | > 100 µM (inactive) | > 100 µM (inactive)
O=C1CCCCCCCCCCC(=O)C2CCOCCOCCOCCC1Cc1cccc(n1)C2 | > 100 µM (inactive) | 82.8 µM (inactive) | 93.3 µM (inactive) | 90.4 µM (inactive) | 59.3 µM (inactive) | 67.6 µM (inactive) | 60 µM (inactive) | > 100 µM (inactive) | 51.5 µM (inactive) | > 100 µM (inactive) | 64.9 µM (inactive) | > 100 µM (inactive) |  | > 100 µM (inactive) | 42.1 µM (inactive) | 43.9 µM (inactive) | 39.1 µM (inactive)
Cc1ccc(N(C(=O)CC(=O)NN)C(=O)c2ccccc2Cl)cc1 | > 100 µM (inactive) | > 100 µM (inactive) | > 100 µM (inactive) | > 100 µM (inactive) | > 100 µM (inactive) | > 100 µM (inactive) | > 100 µM (inactive) | > 100 µM (inactive) | > 100 µM (inactive) | > 100 µM (inactive) | > 100 µM (inactive) | > 100 µM (inactive) |  | > 100 µM (inactive) | > 100 µM (inactive) | > 100 µM (inactive) | > 100 µM (inactive)
COC(=O)CC1NC(=O)[C@@H]1C(C)O (stereo partly specified) | > 100 µM (inactive) | > 100 µM (inactive) | > 100 µM (inactive) | > 100 µM (inactive) |  | > 100 µM (inactive) | > 100 µM (inactive) |  | > 100 µM (inactive) | > 100 µM (inactive) | > 100 µM (inactive) | > 100 µM (inactive) | > 100 µM (inactive) | > 100 µM (inactive) | > 100 µM (inactive) |  | > 100 µM (inactive)
CC(C)(C)[Si](C)(C)O/N=C\c1cccc(O[Si](C)(C)C(C)(C)C)c1 | 19.2 µM (inactive) |  | 17.8 µM (inactive) | 18.6 µM (inactive) | 18 µM (inactive) | 16 µM (inactive) |  |  | 16.1 µM (inactive) |  | 19.9 µM (inactive) | 20.7 µM (inactive) |  | 17.5 µM (inactive) | 15.6 µM (inactive) |  | 17 µM (inactive)
Cc1n[nH]c(N)c1C(N)=O |  | > 100 µM (inactive) | > 100 µM (inactive) | > 100 µM (inactive) | > 100 µM (inactive) | > 100 µM (inactive) |  | > 100 µM (inactive) | > 100 µM (inactive) | > 100 µM (inactive) | > 100 µM (inactive) | > 100 µM (inactive) |  | > 10 µM (inactive) | > 100 µM (inactive) | > 100 µM (inactive) | > 100 µM (inactive)
c1cc2c(cc1C1OCC3C(c4ccc5c(c4)OCO5)OCC13)OCO2 (stereo unspecified) | > 100 µM (inactive) | 55.3 µM (inactive) | 67.8 µM (inactive) | 75.2 µM (inactive) | 58.9 µM (inactive) | 66.8 µM (inactive) | 58.3 µM (inactive) | 38.5 µM (inactive) | > 100 µM (inactive) | 64.7 µM (inactive) | 92.3 µM (inactive) | > 100 µM (inactive) |  | 83 µM (inactive) | 57 µM (inactive) | 65.8 µM (inactive) | 
CCOC(=O)C(=CNC(Cc1c[nH]c2ccccc12)C(=O)OC)C(=O)OCC (stereo unspecified) |  | > 100 µM (inactive) | > 100 µM (inactive) | > 100 µM (inactive) |  | > 100 µM (inactive) | > 100 µM (inactive) | > 100 µM (inactive) |  | > 100 µM (inactive) | > 100 µM (inactive) | > 100 µM (inactive) |  | > 100 µM (inactive) | 74.6 µM (inactive) | > 100 µM (inactive) | > 100 µM (inactive)
COc1cc2c[n+](C)c3c4cc(OC)c(OC(C)C)cc4ccc3c2cc1OC | > 100 µM (inactive) |  | 10.5 µM (inactive) | 45.1 µM (inactive) | 29.8 µM (inactive) | 84.9 µM (inactive) | 98.4 µM (inactive) | 48.6 µM (inactive) | 62.7 µM (inactive) | 57.7 µM (inactive) | 37.8 µM (inactive) | 51.8 µM (inactive) | 43.2 µM (inactive) | 29.6 µM (inactive) | > 100 µM (inactive) | 16.9 µM (inactive) | 36.2 µM (inactive)
CN(C)C(=S)/N=c1\ss/c(=N\C(=S)N(C)C)n1-c1ccc2c(c1)OCO2 | > 100 µM (inactive) | > 100 µM (inactive) |  | 10 µM (inactive) | > 100 µM (inactive) | > 100 µM (inactive) | > 100 µM (inactive) | > 100 µM (inactive) | 4.19 µM (inactive) | > 100 µM (inactive) | > 100 µM (inactive) | > 100 µM (inactive) | > 100 µM (inactive) | > 100 µM (inactive) | > 100 µM (inactive) | 15.6 µM (inactive) | 
CCCCN/C(=N\C#N)N(Cc1ccccc1)Cc1ccccc1 | 29.9 µM (inactive) | 17.3 µM (inactive) | 18.4 µM (inactive) | 22.2 µM (inactive) | 28.2 µM (inactive) | 20.1 µM (inactive) | 41.7 µM (inactive) | 24.6 µM (inactive) | 27.3 µM (inactive) | 34.2 µM (inactive) | 27.7 µM (inactive) | 35.7 µM (inactive) |  | 28.5 µM (inactive) | 20.7 µM (inactive) | 15 µM (inactive) | 16.6 µM (inactive)
CN(C)CCCOc1ccc(/C=C2/CCC/C(=C/c3ccc(OCCCN(C)C)cc3)C2=O)cc1 | 1.3 µM (inactive) | 1.85 µM (inactive) | 1.73 µM (inactive) | 2.72 µM (inactive) | 1.32 µM (inactive) | 2.11 µM (inactive) |  | 1.74 µM (inactive) | 2.31 µM (inactive) | 1.79 µM (inactive) | 1.39 µM (inactive) | 2.08 µM (inactive) |  | 0.918 µM (active) | 1.79 µM (inactive) | 1.8 µM (inactive) | 1.26 µM (inactive)
COC(=O)CC(c1ccccc1)C1(c2ccccc2)SCCS1 (stereo unspecified) | > 290 µM (inactive) |  | > 290 µM (inactive) | > 290 µM (inactive) | 108 µM (inactive) |  | > 290 µM (inactive) | 130 µM (inactive) |  | > 290 µM (inactive) | 185 µM (inactive) | > 290 µM (inactive) | 54.8 µM (inactive) | > 290 µM (inactive) |  | 106 µM (inactive) | 21.2 µM (inactive)
Cc1ccccc1C(C#N)C(=O)C(=O)Nc1cccc(Cl)c1 (stereo unspecified) | 37.8 µM (inactive) | > 100 µM (inactive) | 58.3 µM (inactive) | > 100 µM (inactive) | > 100 µM (inactive) | > 100 µM (inactive) | > 100 µM (inactive) | > 100 µM (inactive) |  | > 100 µM (inactive) | > 100 µM (inactive) | > 100 µM (inactive) |  | > 100 µM (inactive) | > 100 µM (inactive) | 58.5 µM (inactive) | 27.2 µM (inactive)
COC(=O)C(CC(=O)c1c[nH]c2ccccc12)c1c[nH]c2ccccc12 (stereo unspecified) | 23.9 µM (inactive) | 20.3 µM (inactive) |  | > 10 µM (inactive) | > 10 µM (inactive) | 18.2 µM (inactive) | 22 µM (inactive) | 16.7 µM (inactive) | 17.1 µM (inactive) | 19.5 µM (inactive) |  |  |  | 20.8 µM (inactive) | 18.2 µM (inactive) |  | 11.5 µM (inactive)
C#CCOc1c(C(=O)OCC)c(=O)n(C)c2ccccc12 |  | > 100 µM (inactive) | > 100 µM (inactive) | > 100 µM (inactive) |  | > 100 µM (inactive) | > 100 µM (inactive) | > 100 µM (inactive) |  | > 100 µM (inactive) | > 100 µM (inactive) | > 100 µM (inactive) |  | > 100 µM (inactive) | > 100 µM (inactive) | > 100 µM (inactive) | > 100 µM (inactive)
CN(c1n[n+]2c(-c3ccccc3)csc2s1)c1n[n+]2c(-c3ccccc3)csc2s1 | > 100 µM (inactive) |  | 46.7 µM (inactive) | > 100 µM (inactive) | > 100 µM (inactive) | > 100 µM (inactive) | > 100 µM (inactive) | > 100 µM (inactive) | > 100 µM (inactive) | > 100 µM (inactive) | > 100 µM (inactive) | > 100 µM (inactive) | 61.5 µM (inactive) |  | > 100 µM (inactive) | 33.7 µM (inactive) | > 100 µM (inactive)
CCCOc1nc(N)c2cnn(C3CCCCO3)c2n1 (stereo unspecified) | > 100 µM (inactive) |  | > 100 µM (inactive) | > 100 µM (inactive) | > 100 µM (inactive) | > 100 µM (inactive) | > 100 µM (inactive) | > 100 µM (inactive) | > 100 µM (inactive) | > 100 µM (inactive) | > 100 µM (inactive) | > 100 µM (inactive) | > 100 µM (inactive) | > 100 µM (inactive) | > 100 µM (inactive) | > 100 µM (inactive) | > 100 µM (inactive)
